Laboratory results from patent publication US8048621B2, “Biological markers predictive of anti-cancer response to insulin-like growth factor-1 receptor kinase inhibitors” (OSI Pharmaceuticals, LLC, priority 2007, dated 2011).

Assays:
Assay type in all cases: cell-based, human
[1] = test system: panel comprised of 28 tumor cell lines (colorectal, breast, pancreatic, NSCLC, head and neck); assay: Cell-Titer Glo growth inhibition, tumor cell line panel
Experimental: The effect of 3 μM PQIP on cell growth for a panel of 26 tumor cell lines is shown. The EMT status for the cell lines is indicated, and those tumor cell lines which harbor a known activating mutation in PI3K are marked by a *. EMT status is defined here according to the transcriptional activity of CDH1, the gene encoding E-Cadherin, indicated by either the methylation status of the CDH1 promoter or the presence of CDH1 gene transcriptional repressor proteins (e.g. Snail, Zeb1). Methylation or high levels of transcriptional repressors is associated with silencing of CDH1, and is thus an indicator of a mesenchymal cell. Cell growth was measured using Cell Titer Glo (Promega), and measurements were taken 72 hours after dosing. Data are expressed as % of maximal tumor growth inhibition and are representative of three or more independent experiments. […]
For measuring cell viability, Cell-Titer Glo assay was used, which is available as a kit from Promega. The basis of the assay is a luminescent quantitation of ATP present in a cell culture plate well. […] The assay utilizes a substrate that binds ATP to produce a luminescent signal, which can be read on a luminometer. […] Results were calculated as a fraction of the DMSO controlled cells.

A549 cells = assay: Cell-Titer Glo cell viability / growth inhibition; conditions: A549 NSCLC cell line
Experimental: (§1) The NSCLC lines with IGF-1R, H292, H358, H322, H441, A549, Calu6, H460, H1703 and SW1573 were cultured in the appropriate ATCC recommended supplemented media. Cell extracts were prepared by detergent lysis ((50 mM Tris-HCl, pH8, 150 mM NaCl, 1% NP-40, 0.5% NaDeoxycholate, 0.1% SDS) containing protease and phosphatase inhibitors. The soluble protein concentration was determined by micro-BSA assay (Pierce, Rockford Ill.).
(§2) IGF-1R inhibitor Compound 66 (i.e. 3-(3-Azetidin-1-ylmethyl-cyclobutyl)-1-(2-phenyl-quinolin-7-yl)-imidazo[1,5-a]pyrazin-8-ylamine; see structure below) stock concentration was 10 mM in 100% DMSO (dimethyl sulfoxide). Serial dilutions (1:3 or 1:4) were used to establish the 50% inhibitory dose of IGF-1R inhibitor. Before dosing, inhibitor was diluted in 100% DMSO, and then added to the cells at desired final concentrations in duplicates. The final DMSO concentration was between 0.3-0.5%. Compound 66 was synthesized by the methods described in published International patent application number WO 2005/097800 A1.
(§3) For measuring cell viability, Cell-Titer Glo assay was used, which is available as a kit from Promega. The basis of the assay is a luminescent quantitation of ATP present in a cell culture plate well. In essence, the greater the number of viable cells in the well, the greater the level of ATP present. The assay utilizes a substrate that binds ATP to produce a luminescent signal, which can be read on a luminometer. Unless otherwise noted, the manufacturer's instructions were followed exactly. Briefly, on Day 1, cells were plated in 120 μl of 10% serum-containing growth media at a density of 4000 cells/well in a white polystyrene 96 well assay plate. On day 2, cells were treated with 15 μl of 10× concentration of the IGF-1R inhibitor (e.g. Compound 66, PQIP) or DMSO alone for a final well volume of […]. After 72 h incubation with the inhibitor, the cells were assayed. Results were calculated as a fraction of the DMSO controlled cells.

H292 cells = assay: Cell-Titer Glo cell viability / growth inhibition; conditions: H292 NSCLC cell line
Experimental: as §1, §2, §3

H358 cells = assay: Cell-Titer Glo cell viability / growth inhibition; conditions: H358 NSCLC cell line
Experimental: as §1, §2, §3

H441 cells = assay: Cell-Titer Glo cell viability / growth inhibition; conditions: H441 NSCLC cell line
Experimental: as §1, §2, §3

H460 cells = assay: Cell-Titer Glo cell viability / growth inhibition; conditions: H460 NSCLC cell line
Experimental: as §1, §2, §3

SW1573 cells = assay: Cell-Titer Glo cell viability / growth inhibition; conditions: SW1573 NSCLC cell line
Experimental: as §1, §2, §3

Row | Structure (SMILES) | inhibition at 3 µM ([1]; Homo sapiens, 3 μM PQIP, any mesenchymal tumor cell line in the panel) | dose dependence of growth inhibition ([1]; varying concentrations of PQIP, all cell lines (data not shown)) | sensitivity to Compound 66-mediated growth inhibition (A549 cells) | sensitivity to Compound 66-mediated growth inhibition (H292 cells) | sensitivity to Compound 66-mediated growth inhibition (H358 cells) | sensitivity to Compound 66-mediated growth inhibition (H441 cells) | sensitivity to Compound 66-mediated growth inhibition (H460 cells) | sensitivity to Compound 66-mediated growth inhibition (SW1573 cells)
1 | CN1CCN([C@H]2C[C@@H](c3nc(-c4ccc5ccc(-c6ccccc6)nc5c4)c4c(N)nccn43)C2)CC1 [PQIP, cis-3-[3-(4-Methyl-piperazin-1-yl)-cyclobutyl]1-(2-phenyl-quinolin-7-yl)-imidazo[1,5-a]pyrazin-8-ylamine] | ≤ 50% | dose-dependent |  |  |  |  |  | 
2 | Nc1nccn2c1c(-c1ccc3ccc(-c4ccccc4)nc3c1)nc2[C@H]1C[C@@H](CN2CCC2)C1 [Compound 66, 3-(3-Azetidin-1-ylmethyl-cyclobutyl)-1-(2-phenyl-quinolin-7-yl)-imidazo[1,5-a]pyrazin-8-ylamine] |  |  | intermediate sensitivity | sensitive | sensitive | sensitive | relatively insensitive | relatively insensitive
